According to patent US20240269139A1, “COMPOUNDS FOR TARGETED PROTEIN DEGRADATION OF KINASES” (DANA-FARBER CANCER INSTITUTE, INC., priority 2020, published 2024):
Where two headings read alike, the source gives them in different places.

What was measured:
Assay type in all cases: cell-based
[1] = target: protein kinases (human kinome) (Homo sapiens, UniProt P16591); settings: for logFC of FER (P16591-1): down
[2] = target: T1, protein kinases (human kinome) (Homo sapiens, UniProt O75385); settings: for logFC: ULK1 (O75385) protein abundance, degrader vs DMSO, down; for logFC ULK1: ULK1 O75385, experiment wp160
T1 sequence (O75385 1-1050): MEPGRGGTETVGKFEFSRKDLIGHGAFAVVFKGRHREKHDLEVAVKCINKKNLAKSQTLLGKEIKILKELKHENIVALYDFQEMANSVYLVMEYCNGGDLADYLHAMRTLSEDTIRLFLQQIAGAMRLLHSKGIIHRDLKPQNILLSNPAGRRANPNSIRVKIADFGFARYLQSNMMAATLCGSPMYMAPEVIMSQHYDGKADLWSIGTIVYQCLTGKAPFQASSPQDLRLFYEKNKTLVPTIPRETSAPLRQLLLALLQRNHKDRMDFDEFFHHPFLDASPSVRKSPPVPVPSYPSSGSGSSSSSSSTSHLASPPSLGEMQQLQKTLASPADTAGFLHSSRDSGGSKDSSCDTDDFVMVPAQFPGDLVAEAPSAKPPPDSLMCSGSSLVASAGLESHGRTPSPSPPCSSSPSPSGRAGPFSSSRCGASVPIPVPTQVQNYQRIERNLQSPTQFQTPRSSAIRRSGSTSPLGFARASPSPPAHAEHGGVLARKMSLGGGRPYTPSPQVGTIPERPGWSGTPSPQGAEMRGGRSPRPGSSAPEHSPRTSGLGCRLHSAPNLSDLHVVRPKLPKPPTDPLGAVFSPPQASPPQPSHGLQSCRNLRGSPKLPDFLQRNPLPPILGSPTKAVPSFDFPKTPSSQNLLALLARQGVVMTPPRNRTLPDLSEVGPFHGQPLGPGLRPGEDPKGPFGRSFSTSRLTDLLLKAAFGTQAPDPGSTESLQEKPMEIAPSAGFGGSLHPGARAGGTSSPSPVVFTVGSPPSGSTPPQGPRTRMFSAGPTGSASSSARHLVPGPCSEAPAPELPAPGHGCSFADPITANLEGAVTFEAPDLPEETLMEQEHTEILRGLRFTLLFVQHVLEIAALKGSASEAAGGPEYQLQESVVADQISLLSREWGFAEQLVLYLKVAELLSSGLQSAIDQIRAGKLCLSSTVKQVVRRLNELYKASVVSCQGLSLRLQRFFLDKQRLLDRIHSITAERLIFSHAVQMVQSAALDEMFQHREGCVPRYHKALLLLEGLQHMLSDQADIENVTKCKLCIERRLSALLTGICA

[3] = target: T2, protein kinases (human kinome) (Homo sapiens, UniProt O14976)
T2 sequence (O14976 1-1311): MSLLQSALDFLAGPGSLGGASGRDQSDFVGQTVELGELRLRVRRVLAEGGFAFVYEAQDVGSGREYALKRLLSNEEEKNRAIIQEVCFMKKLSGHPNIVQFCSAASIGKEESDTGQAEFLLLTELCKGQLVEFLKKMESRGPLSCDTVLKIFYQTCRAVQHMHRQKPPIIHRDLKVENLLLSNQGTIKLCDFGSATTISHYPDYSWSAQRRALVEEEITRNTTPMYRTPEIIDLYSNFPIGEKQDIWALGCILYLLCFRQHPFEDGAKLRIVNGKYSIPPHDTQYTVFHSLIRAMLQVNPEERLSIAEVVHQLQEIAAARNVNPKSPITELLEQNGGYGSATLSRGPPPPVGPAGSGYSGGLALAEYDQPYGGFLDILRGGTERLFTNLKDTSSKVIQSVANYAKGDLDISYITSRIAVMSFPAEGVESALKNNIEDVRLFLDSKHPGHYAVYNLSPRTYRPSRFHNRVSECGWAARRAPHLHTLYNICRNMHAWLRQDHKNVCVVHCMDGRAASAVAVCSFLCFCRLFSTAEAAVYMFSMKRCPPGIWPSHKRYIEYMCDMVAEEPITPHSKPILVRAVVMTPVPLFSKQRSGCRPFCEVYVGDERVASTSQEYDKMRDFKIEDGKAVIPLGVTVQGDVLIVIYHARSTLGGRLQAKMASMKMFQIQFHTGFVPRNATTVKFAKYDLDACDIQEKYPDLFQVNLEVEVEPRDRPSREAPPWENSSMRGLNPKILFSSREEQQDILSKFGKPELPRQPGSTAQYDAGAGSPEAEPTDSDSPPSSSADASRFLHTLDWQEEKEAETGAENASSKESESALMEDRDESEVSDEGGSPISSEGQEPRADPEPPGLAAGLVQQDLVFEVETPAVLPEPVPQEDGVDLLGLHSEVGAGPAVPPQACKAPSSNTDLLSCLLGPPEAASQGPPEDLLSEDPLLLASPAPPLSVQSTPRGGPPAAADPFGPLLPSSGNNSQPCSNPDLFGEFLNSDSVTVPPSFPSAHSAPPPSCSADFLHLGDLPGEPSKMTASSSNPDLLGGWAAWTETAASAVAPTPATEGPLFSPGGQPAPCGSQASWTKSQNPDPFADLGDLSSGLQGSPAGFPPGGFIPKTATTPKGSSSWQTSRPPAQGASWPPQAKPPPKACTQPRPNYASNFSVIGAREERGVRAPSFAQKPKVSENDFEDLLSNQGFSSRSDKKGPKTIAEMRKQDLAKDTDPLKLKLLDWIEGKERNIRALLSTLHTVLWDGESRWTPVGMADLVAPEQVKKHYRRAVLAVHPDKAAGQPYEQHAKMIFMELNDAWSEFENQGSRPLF

Chain of protein kinases (human kinome) (Homo sapiens, UniProt P16591) (P16591 whole entry): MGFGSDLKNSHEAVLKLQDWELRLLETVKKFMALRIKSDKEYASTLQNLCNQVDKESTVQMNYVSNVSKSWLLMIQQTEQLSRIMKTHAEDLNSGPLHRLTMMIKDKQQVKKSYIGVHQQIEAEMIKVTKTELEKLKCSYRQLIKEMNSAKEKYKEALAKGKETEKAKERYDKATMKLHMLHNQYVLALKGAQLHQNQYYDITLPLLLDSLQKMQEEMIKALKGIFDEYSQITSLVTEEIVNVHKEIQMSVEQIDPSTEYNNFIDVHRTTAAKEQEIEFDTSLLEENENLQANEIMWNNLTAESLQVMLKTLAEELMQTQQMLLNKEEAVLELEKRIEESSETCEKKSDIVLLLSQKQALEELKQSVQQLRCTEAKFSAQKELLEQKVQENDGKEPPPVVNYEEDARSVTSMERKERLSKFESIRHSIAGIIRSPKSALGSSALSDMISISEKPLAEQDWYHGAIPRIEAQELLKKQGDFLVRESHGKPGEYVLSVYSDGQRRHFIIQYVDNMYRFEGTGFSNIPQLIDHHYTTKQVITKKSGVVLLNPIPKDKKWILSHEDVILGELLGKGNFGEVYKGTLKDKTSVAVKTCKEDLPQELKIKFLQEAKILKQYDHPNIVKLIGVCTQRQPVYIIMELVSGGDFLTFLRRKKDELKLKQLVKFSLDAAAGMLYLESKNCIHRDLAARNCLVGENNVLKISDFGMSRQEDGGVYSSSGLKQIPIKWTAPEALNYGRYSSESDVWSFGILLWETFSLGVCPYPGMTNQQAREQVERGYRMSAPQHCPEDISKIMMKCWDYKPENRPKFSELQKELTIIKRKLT

In the case of Cc1ccc(NC(=O)c2cccc(C(F)(F)F)c2)cc1N1Cc2cnc(Nc3ccc(N4CCN(Cc5cn(CCCCCOc6cccc7c6C(=O)N(C6CCC(=O)NC6=O)C7=O)nn5)CC4)nc3)nc2N(C)C1=O (stereo not drawn) [DB0646, N-(3-(7-((6-(4-((1-(5-((2-(2,6-Dioxopiperidin-3-yl)-1,3-dioxoisoindolin-4-yl)oxy)pentyl)-1H-1,2,3-triazol-4-yl)methyl)piperazin-1-v)pyridin-3-yl)amino)-1-methyl-2-oxo-1,4-dihydropyrimido[4,5-d]pyrimidin-3(2H)-yl)-4-methylphenyl)-3-(trifluoromethyl)benzamide], the “logFC of FER (P16591-1)” value ([1]; Experiment wp045) is reported as −1.712, the “logFC of FER (P16591-1)” value ([1]; Experiment wp103) is reported as −1.628 and the “logFC of FER (P16591-1)” value ([1]; Experiment wp105) is reported as −0.8737. For the same compound, the “logFC of FER (P16591-1)” value ([1]; Experiment wp107) was −1.722, the “logFC of FER (P16591-1)” value ([1]; Experiment wp117) was −1.753 and the “logFC of FER (P16591-1)” value ([1]; Experiment wp160, 2 hr) was −0.5384. For the same compound, the “logFC of FER (P16591-1)” value ([1]; Experiment wp160, 4 hr) was −1.454, the “logFC of FER (P16591-1)” value ([1]; Experiment wp160, 8 hr) was −1.737 and the “logFC of FER” value ([1]; FER P16591-1, experiment wp045) was −1.712. The “logFC of FER” value ([1]; FER P16591-1, experiment wp103) was −1.628, the “logFC of FER” value ([1]; FER P16591-1, experiment wp105) was −0.8737 and the “logFC of FER” value ([1]; FER P16591-1, experiment wp107) was −1.722. For the same compound, the “logFC of FER” value ([1]; FER P16591-1, experiment wp117) was −1.753, the “logFC of FER” value ([1]; FER P16591-1, experiment wp160, 2 hr) was −0.5384 and the “logFC of FER” value ([1]; FER P16591-1, experiment wp160, 4 hr) was −1.454. For the same compound, the “logFC of FER” value ([1]; FER P16591-1, experiment wp160, 8 hr) was −1.737, the “logFC of FER” value ([1]; FER P16591, experiment wp152) was −1.698 and the “logFC of FER (P16591)” value ([1]; experiment wp152) was −1.698. The logFC ([2]; 4 hr) was −0.3412, the logFC ([2]; 8 hr) was −0.3989 and the “logFC ULK1” value ([2]; 4 hr) was −0.3412. For the same compound, the “logFC ULK1” value ([2]; 8 hr) was −0.3989, the “logFC of GAK (O14976)” value ([3]; Experiment wp045, down) was −0.6424 and the “logFC of GAK (O14976)” value ([3]; Experiment wp103, down) was −0.4684. The “logFC of GAK (O14976)” value ([3]; Experiment wp105, down) was −0.3367, the “logFC of GAK (O14976)” value ([3]; Experiment wp107, down) was −0.5564 and the “logFC of GAK (O14976)” value ([3]; Experiment wp114, down) was −0.3391. The “logFC of GAK (O14976)” value ([3]; Experiment wp117, down) was −0.5868, the “logFC of GAK (O14976)” value ([3]; Experiment wp152, down) was −0.5117 and the “logFC of GAK (O14976)” value ([3]; Experiment wp160, 4 hr, down) was −0.4714. For the same compound, the “logFC GAK” value ([3]; GAK (O14976), direction down, experiment wp045) was −0.6424, the “logFC GAK” value ([3]; GAK (O14976), direction down, experiment wp103) was −0.4684 and the “logFC GAK” value ([3]; GAK (O14976), direction down, experiment wp105) was −0.3367. For the same compound, the “logFC GAK” value ([3]; GAK (O14976), direction down, experiment wp107) was −0.5564, the “logFC GAK” value ([3]; GAK (O14976), direction down, experiment wp114) was −0.3391 and the “logFC GAK” value ([3]; GAK (O14976), direction down, experiment wp117) was −0.5868. The “logFC GAK” value ([3]; GAK (O14976), direction down, experiment wp152) was −0.5117, the “logFC GAK” value ([3]; GAK (O14976), direction down, experiment wp160, 4 hr) was −0.4714 and the “logFC GAK” value ([3]; GAK (O14976), direction down, experiment wp160, 8 hr) was −0.8149. The “logFC GAK” value ([3]; GAK (O14976), experiment wp160, 8 hr, degrader vs DMSO, down) was −0.8149, the “logFC GAK” value ([3]; GAK (O14976), experiment wp172, down) was −0.345 and the “logFC GAK” value ([3]; GAK, accession O14976, experiment wp172, direction of change down) was −0.345.
